PubChem BioAssay (NCI)
Values joined by “and” are separate entries in the source; they are usually repeats but may differ in a detail not shown here. Identical values can stand only once.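 Growth conditions: 96-well plates. Treatment: test compound, 48 hours, 5 concentrations. Analysis: linear interpolation between bracketing concentrations; unreached endpoints set to highest concentration. Here, GI50 denotes the concentration required for 50% inhibition of growth. Definition used: TGI = concentration required for complete inhibition of growth.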

Legend:
Assay in all cases: NCI-60 cell line screen, 48 h
ACHN renal = test system: ACHN renal
COLO 205 colon = test system: COLO 205 colon
HCT-116 colon = test system: HCT-116 colon
HOP-92 NSCLC = test system: HOP-92 NSCLC
HT29 colon = test system: HT29 colon
KM12 colon = test system: KM12 colon
MALME-3M melanoma = test system: MALME-3M melanoma
NCI-H226 lung = test system: NCI-H226 lung
NCI/ADR-RES ovarian = test system: NCI/ADR-RES ovarian
SK-MEL-28 melanoma = test system: SK-MEL-28 melanoma
SNB-19 CNS = test system: SNB-19 CNS
HL-60(TB) leukemia = test system: HL-60(TB) leukemia

SMILES | TGI (ACHN renal) | TGI (COLO 205 colon) | TGI (HCT-116 colon) | TGI (HOP-92 NSCLC) | TGI (HT29 colon) | TGI (KM12 colon) | TGI (MALME-3M melanoma) | TGI (NCI-H226 lung) | TGI (NCI/ADR-RES ovarian) | TGI (SK-MEL-28 melanoma) | TGI (SNB-19 CNS) | TGI (HL-60(TB) leukemia) | GI50 (COLO 205 colon) [µM] | GI50 (ACHN renal) | GI50 (HOP-92 NSCLC) | GI50 (KM12 colon) | GI50 (NCI-H226 lung) | GI50 (NCI/ADR-RES ovarian) | GI50 (SNB-19 CNS)
CC(=O)O[C@@H]1C[C@]2(C(=O)c3ccccc3)C(=O)C(=O)S[C@]12c1ccccc1 | > 100 µM | > 100 µM | > 100 µM | > 100 µM | > 100 µM | > 100 µM | > 100 µM | > 100 µM | > 100 µM | > 100 µM | > 100 µM | – | – | – | – | – | – | – | –
C[C@H]1C[C@@H]2[C@H]([C@@H](O)C[C@@]3(C)[C@H]2CC[C@]3(O)C(=O)CO)[C@@]2(C)C=CC(=O)C=C12 | > 100 µM | > 100 µM | > 100 µM | > 100 µM | > 100 µM | > 100 µM | > 100 µM | > 100 µM | – | > 100 µM | – | > 100 µM | – | – | – | – | – | – | –
CC(C)(C)[Si](OC1CCOC1=O)(c1ccccc1)c1ccccc1 (centres undefined) | 99.6 µM | > 10 µM | 26.6 µM | > 10 µM | 32.3 µM | > 10 µM | 45.1 µM | – | – | 62.6 µM | > 100 µM | > 100 µM | – | – | – | – | – | – | –
COc1cc2c(c(OC)c1OC)-c1ccc(OC)c(=O)cc1C(NC(=O)COc1ccccc1)CC2 (centres undefined) | > 100 µM | < 0.01 µM | – | 2.91 µM | < 0.146 µM | < 0.011 µM | > 100 µM | 0.423 µM | 0.4 µM | > 100 µM | > 100 µM | – | – | – | – | – | – | – | –
Cc1ccc(O)c(Cc2nc3ccccc3nc2-c2cccc(Cl)c2)c1 | > 100 µM | > 100 µM | > 100 µM | 78.5 µM | > 100 µM | > 100 µM | > 100 µM | > 100 µM | > 100 µM | – | 63.4 µM | > 100 µM | – | – | – | – | – | – | –
COc1cc(C(=O)NC2CCc3cc(OC)c(OC)c(OC)c3-c3ccc(OC)c(=O)cc32)cc(OC)c1OC (centres undefined) | > 100 µM | 0.23 µM | 1.69 µM | 3.62 µM | 2.29 µM | 0.801 µM | 85.3 µM | 3.31 µM | 70.3 µM | > 100 µM | > 100 µM | 0.262 µM | – | – | – | – | – | – | –
c1ccc2c(CSCc3cccc4ccccc34)cccc2c1 | > 100 µM | – | > 100 µM | > 100 µM | > 100 µM | > 100 µM | > 100 µM | > 100 µM | > 100 µM | > 100 µM | > 100 µM | – | – | – | – | – | – | – | –
C[n+]1cccc(NC(=O)c2ccc(NC(=O)C34CCC(C(=O)Nc5ccc(C(=O)Nc6ccc[n+](C)c6)cc5)(CC3)CC4)cc2)c1 | > 100 µM | – | > 100 µM | > 100 µM | > 100 µM | 22.7 µM | – | > 100 µM | – | > 100 µM | > 100 µM | 9.33 µM | – | – | – | – | – | – | –
CCCCc1ccc(N=C(N)N)cc1 | > 100 µM | 35.4 µM | > 100 µM | > 100 µM | 93.5 µM | 36.6 µM | > 100 µM | 91.5 µM | > 100 µM | > 100 µM | > 100 µM | 73.6 µM | – | – | – | – | – | – | –
CC(=O)Oc1ccccc1 | > 100 µM | – | > 100 µM | – | > 100 µM | > 100 µM | > 100 µM | > 100 µM | – | > 100 µM | > 100 µM | > 100 µM | – | – | – | – | – | – | –
O=C(C=P(c1ccccc1)(c1ccccc1)c1ccccc1)c1ccc(-c2cccs2)cc1 | 19.8 µM | 1.95 µM | 13.9 µM | 11.3 µM | 13.7 µM | 15 µM | 13.4 µM | 8.4 µM | 23.1 µM | 15.7 µM | 11.2 µM | 4.87 µM | – | – | – | – | – | – | –
CCCCN1C(=O)C2Cc3c([nH]c4ccccc34)C(c3cccc(O)c3)N2C1=O (centres undefined) | 34.1 µM | 39.5 µM | 34.9 µM | 33.8 µM | 35.7 µM | 36.2 µM | – | 42.3 µM | 36.2 µM | 34.3 µM | 34.6 µM | 46.2 µM | – | – | – | – | – | – | –
CNC(=O)OCc1nc(SC)n(C)c1CO | – | > 100 µM | > 100 µM | > 100 µM | > 100 µM | > 100 µM | 3.42 µM | > 100 µM | > 100 µM | > 100 µM | > 100 µM | > 100 µM | – | – | – | – | – | – | –
COC1/C=C(C)/C=C/C(C)/C=C/C(=O)OC(/C(C)=C/C=C(\C)CNC(=O)[C@H](CO)NC=O)C(C)/C=C/C=C/C(OC)CC/C=C(C)/C=C/C1 (some centres undefined) | > 1 µM | > 1 µM | > 1 µM | > 0.267 µM | > 1 µM | > 1 µM | 0.385 µM | – | > 0.724 µM | > 1 µM | > 1 µM | 0.0957 µM | 0.0331 | – | – | – | – | – | –
CN1C=c2c3c(ccc2=C2C=CC4C=C5OCOC5=CC4=C21)OCO3 (centres undefined) | 3.08 µM and 5.03 µM | 2.78 µM and 3.5 µM | 2.39 µM and 3.19 µM | 3 µM and 14.1 µM | 3.02 µM and 5.1 µM | 2.8 µM and 13.2 µM | 3.05 µM and 5.92 µM | 3.36 µM and 14.7 µM | 3.27 µM and 14.3 µM | 3.07 µM and 7.28 µM | 3.07 µM and 25 µM | 0.434 µM and 0.847 µM | – | 1.68 µM and 1.85 µM | 1.62 µM and 5.71 µM | 1.27 µM and 4.06 µM | 1.82 µM and 7.18 µM | 1.58 µM and 6.13 µM | 1.65 µM and 12.2 µM
O=C(CSCC(=O)N/N=C/c1ccc2c(c1)OCO2)N/N=C/c1ccc2c(c1)OCO2 | > 100 µM | – | > 100 µM | > 100 µM | > 100 µM | > 100 µM | > 100 µM | > 100 µM | > 100 µM | > 100 µM | > 100 µM | > 100 µM | – | – | – | – | – | – | –
COc1ccccc1/C=C/c1ccnc2ccccc12 | 32.8 µM | 33.2 µM | 26.5 µM | 26.2 µM | 25.4 µM | 25.3 µM | 24.8 µM | 29.5 µM | 32.4 µM | 31.1 µM | 28.2 µM | 26 µM | – | – | – | – | – | – | –
CCOC(=O)c1cnc(N(C)C)nc1SC(=N)N | > 100 µM | > 100 µM | > 100 µM | > 100 µM | > 100 µM | > 100 µM | > 100 µM | > 100 µM | > 100 µM | > 100 µM | > 100 µM | – | – | – | – | – | – | – | –
CC(=O)Nc1ccc2c(c1)/C(=C\c1ccc([N+](C)(C)C)cc1)c1ccccc1-2 | > 100 µM | 35.6 µM | > 100 µM | 79.9 µM | > 100 µM | > 100 µM | > 100 µM | 74.4 µM | > 100 µM | > 100 µM | > 100 µM | 59.5 µM | – | – | – | – | – | – | –
